Test results published in US20040110775A1, “Cyclin dependent kinase inhibiting purine derivatives” (priority 2001, published 2004).
Where “and” joins values, the source holds several entries; their conditions need not be identical. Equal entries are not always repeated. Where two headings read alike, the source gives them in different places.

Columns and labels:
[1] = biological target: p34 cdc2(CDK1)/cyclinB; test: CDK assay: histone H1 phosphorylation with [32P]ATP by cdc2/cyclinB kinase; type: biochemical, starfish (Marthasterias glacialis); settings: read-out: IC50 ± SD CDK1
Method: Assays are available for testing the inhibitory activity of the compounds of interest against a range of CDK/cyclin complexes, including CDK1/cyclin A, CDK1/cyclin B, CDK1/cyclin F, CDK2/cyclin A, CDK2/cyclin E, CDK4/cyclin D, CDK5/35 and CDK6/cyclin D3. […]
(§1) By way of example, however, a typical protocol is summarised below.
Buffer C (containing 6 mM β-glycerophosphate, 30 mM nitrophenyl phosphate, 25 mM MOPS pH 7.0, 5 mM EGTA, 15 mM MgCl2, […] and 0.1 mM sodium orthovanadate) is made up as follows:
Affinity purified p34 cdc2(CDK1)/cyclinB from M-phase starfish (Marthasterias glacialis) in 20% glycerol is stored at −80° C. in chest freezer
Histone H1 (type III-S (Sigma) 4° C.) 5 mg/ml in buffer C.
[^32P]ATP 75 mM: Make up using (multiples of) the following proportions:
DMSO cannot exceed 1% in the assay mixture. Inhibitors are added at 1/10 final assay volume and 10× final strength. DMSO stocks must therefore be diluted to 10× final desired concentration in ≦10% DMSO, ≧90% buffer C.
All reagents (except DMSO stocks) should be kept on ice until assay initiated.
Start reaction in each tube at 30 second intervals b)y adding
5 ml [^32P]ATP vortexing and placing in rack in waterbath at 30° C.
Terminate reaction after 10 min at 30 second intervals in tubes in same order by removing […] reaction mix and spotting onto appropriately labelled filter, allowing to dry for 20-30 seconds and transferring to stirring 1% phosphoric acid.
Blank incubation is performed as above but without histone (add […] buffer C instead) Washing blank is […] ATP added directly to filter.
Wash filters 5-6 times 5 min each
Dry the filters on paper towel
Count in mini scintillation vials with 5 ml scintillant.
NB. The assay can be simplified by making up stock reaction mix as follows:
(1 part cdc2/cyclinB, 16 parts buffer C, 5 parts histone H1)×Number of assay tubes+1 and add […] to each assay tube containing […] buffer C±inhibitor.
It is still necessary, however, to make up assay blank (i.e. without histone) separately.

[2] = biological target: CDK2 (Homo sapiens, UniProt P24941); test: Inhibition of CDK2 (CDK inhibition assay); type: biochemical; settings: read-out: IC50 ± SD CDK2
Source text: Assays are available for testing the inhibitory activity of the compounds of interest against a range of CDK/cyclin complexes, including CDK1/cyclin A, CDK1/cyclin B, CDK1/cyclin F, CDK2/cyclin A, CDK2/cyclin E, CDK4/cyclin D, CDK5/35 and CDK6/cyclin D3.
Apart from reference compounds, the compounds listed are accompanied by an NU reference or identification code number.
as §1

Structure (SMILES) | IC50 ([1]; values given in μM) | IC50 ([2]; values given in μM) | IC50 ([1]; values in nM) | IC50 ([2]; values in nM)
c1ccc(Nc2nc(OCC3CCCCC3)c3nc[nH]c3n2)cc1 [NU6094, 2-Anilino-6-cyclohexylmethoxypurine] | 1.6 ± 0.1 µM | – | – | –
Brc1cccc(Nc2nc(OCC3CCCCC3)c3nc[nH]c3n2)c1 [NU6095, 2-(3′-Bromoanilino)-6-cyclohexylmethoxypurine] | 5.3 ± 0.8 µM | – | – | –
COc1cccc(Nc2nc(OCC3CCCCC3)c3nc[nH]c3n2)c1 [NU6096, 6-Cyclohexylmethoxy-2-(3′-methoxyanilino)purine] | 2.2 ± 0.2 µM | – | – | –
Fc1cccc(Nc2nc(OCC3CCCCC3)c3nc[nH]c3n2)c1 [NU6098, 6-Cyclohexylmethoxy-2-(3′-fluoroanilino)purine] | ~10 µM | ~10 µM | – | –
CCc1cccc(Nc2nc(OCC3CCCCC3)c3nc[nH]c3n2)c1 [NU6099, 6-Cyclohexylmethoxy-2-(3′-ethylanilino)purine] | > 10 µM | > 10 µM | – | –
COc1ccc(Nc2nc(OCC3CCCCC3)c3nc[nH]c3n2)cc1 [NU6100, 6-Cyclohexylmethoxy-2-(4′-methoxyanilino)purine] | 0.8 ± 0.01 µM | – | – | –
CSc1cccc(Nc2nc(OCC3CCCCC3)c3nc[nH]c3n2)c1 [NU6101, 6-Cyclohexylmethoxy-2-(3′-methylmercaptoanilino)purine] | 2.4 ± 0.2 µM | – | – | –
Fc1ccc(Nc2nc(OCC3CCCCC3)c3nc[nH]c3n2)cc1 [NU6116, 6-Cyclohexylmethoxy-2-(4′-fluoroanilino)purine] | > 10 µM | > 10 µM | – | –
CSc1ccc(Nc2nc(OCC3CCCCC3)c3nc[nH]c3n2)cc1 [NU6117, 6-Cyclohexylmethoxy-2-(4′-methylmercaptoanilino)purine] | > 10 µM | > 10 µM | – | –
COC(=O)c1ccc(Nc2nc(OCC3CCCCC3)c3nc[nH]c3n2)cc1 [NU6118, Methyl 4-N-(6′-Cyclohexylmethoxypurin-2′-yl)aminobenzoate] | ~10 µM | ~10 µM | – | –
Fc1ccc(Nc2nc(OCC3CCCCC3)c3nc[nH]c3n2)cc1Cl [NU6119, 6-Cyclohexylmethoxy-2-(3′-chloro-4′-fluoroanilino)purine] | ~10 µM | ~10 µM | – | –
N#CCc1ccc(Nc2nc(OCC3CCCCC3)c3nc[nH]c3n2)cc1 [NU6121, 6-Cyclohexylmethoxy-2-(4′-cyanomethylanilino)purine] | 0.3 ± 0.1 µM | 0.3 ± 0.03 µM | – | –
O=S(=O)(NCc1ccccc1)c1ccc(Nc2nc(OCC3CCCCC3)c3nc[nH]c3n2)cc1 [NU6123, N-Benzyl-4-(cyclohexylmethoxypurine-2-ylamino)-benzenesulfonamide] | 0.7 ± 0.3 µM | 0.2 ± 0.1 µM | – | –
NS(=O)(=O)c1ccc(CNc2nc(OCC3CCCCC3)c3nc[nH]c3n2)cc1 [NU6124, 4-[(6-Cyclohexylmethoxypurine-2-ylamino)methyl]benzenesulfonamide] | 17 ± 0.3 µM | 15 µM and 13 µM | – | –
CC(=O)c1ccc(Nc2nc(OCC3CCCCC3)c3nc[nH]c3n2)cc1 [NU6125] | 0.5 ± 0.2 µM | 0.3 ± 0.04 µM | – | –
C[S+]([O-])c1ccc(Nc2nc(OCC3CCCCC3)c3nc[nH]c3n2)cc1 (stereo not shown) [NU6126] | 0.2 ± 0.1 µM | – | – | –
CNS(=O)(=O)c1ccc(Nc2nc(OCC3CCCCC3)c3nc[nH]c3n2)cc1 [NU6127, 4-(6-Cyclohexylmethoxy-2-ylamino)-N-methylbenzenesulfonamide] | – | – | 0.009 µM and 0.01 µM | –

Structure (SMILES) | IC50 ([1]; values given in μM) | IC50 ([2]; values given in μM) | IC50 ([1]; values in nM) | IC50 ([2]; values in nM)
CN(C)S(=O)(=O)c1ccc(Nc2nc(OCC3CCCCC3)c3nc[nH]c3n2)cc1 [NU6128, 4-(6-Cyclohexylmethoxy-2-ylamino)-N,N-dimethylbenzenesulfonamide] | – | – | 0.077 ± 0.005 µM | –
CCNS(=O)(=O)c1ccc(Nc2nc(OCC3CCCCC3)c3nc[nH]c3n2)cc1 [NU6129, 4-(6Cyclohexylmethoxy-2-ylamino)-N-ethylbenzenesulfonamide] | – | – | 0.007 µM and 0.009 µM | 0.008 ± 0.002 µM
CC(C)CNS(=O)(=O)c1ccc(Nc2nc(OCC3CCCCC3)c3nc[nH]c3n2)cc1 [NU6130, 4-(6Cyclohexylmethoxy-2-ylamino)-N-isobutylbenzenesulfonamide] | – | – | 0.071 ± 0.009 µM | 0.069 ± 0.013 µM
O=S(=O)(NC1CC1)c1ccc(Nc2nc(OCC3CCCCC3)c3nc[nH]c3n2)cc1 [NU6131, 4-(6-Cyclohexylmethoxy-9H-purin-2-ylamino)-N-cyclopropylbenzenesulfonamide] | – | – | 0.013 ± 0.005 µM | 0.008 ± 0.0003 µM
O=S(=O)(Nc1cccc(Cl)c1)c1ccc(Nc2nc(OCC3CCCCC3)c3nc[nH]c3n2)cc1 [NU6132, N-(3-Chloro-phenyl)-4-(6-cyclohexylmethoxy-9H-purin-2-ylamino)benzenesulfonamide] | – | 5.7 µM | – | –
CCCNS(=O)(=O)c1ccc(Nc2nc(OCC3CCCCC3)c3nc[nH]c3n2)cc1 [NU6133, 4-(6-Cyclohexylmethoxy-9H-purin-2-ylamino)-N-propylbenzenesulfonamide] | – | – | 0.034 ± 0.004 µM | 0.017 ± 0.013 µM
O=S(=O)(NCC1CCCO1)c1ccc(Nc2nc(OCC3CCCCC3)c3nc[nH]c3n2)cc1 (stereo not shown) [NU6134, 4-(6-Cyclohexylmethoxy-9H-purin-2-ylamino)-N-(tetrahydrofuran-2-ylmethyl)benzenesulfonamide] | – | – | 0.0072 µM and 0.0073 µM | 0.007 ± 0.0032 µM
COCCNS(=O)(=O)c1ccc(Nc2nc(OCC3CCCCC3)c3nc[nH]c3n2)cc1 [NU6135, 4-(6-Cyclohexylmethoxy-9H-purin-2-ylamino)-N-(2-methoxyethyl)benzenesulfonamide] | – | – | 0.018 ± 0.004 µM | 0.006 ± 0.0015 µM
CN(C)C(=O)c1ccc(Nc2nc(OCC3CCCCC3)c3nc[nH]c3n2)cc1 [NU6136, 4-(6-Cyclohexylmethoxy-9H-purin-2-ylamino)-N,N-dimethylbenzamide] | 0.6 µM | 0.2 µM | – | –
CNC(=O)c1ccc(Nc2nc(OCC3CCCCC3)c3nc[nH]c3n2)cc1 [NU6139, 4-(6-Cyclohexylmethoxy-9H-purin-2-ylamino)-N-methylbenzamide] | 0.7 µM | 0.3 µM | – | –
CCN(CC)C(=O)c1ccc(Nc2nc(OCC3CCCCC3)c3nc[nH]c3n2)cc1 [NU6140, 4-(6-Cyclohexylmethoxy-9H-purin-2-ylamino)-N,N-diethylbenzamide] | 0.7 µM | – | – | –
CCCNC(=O)c1ccc(Nc2nc(OCC3CCCCC3)c3nc[nH]c3n2)cc1 [NU6142, 4-(6-Cyclohexylmethoxy-9H-purin-2-ylamino)-N-propylbenzamide] | 0.42 µM | – | – | ~0.1 µM
CCNC(=O)c1ccc(Nc2nc(OCC3CCCCC3)c3nc[nH]c3n2)cc1 [NU6143, 4-(6-Cyclohexylmethoxy-9H-purin-2-ylamino)-N-ethylbenzamide] | – | – | > 0.1 µM | > 0.1 µM
O=S(=O)(NCCO)c1ccc(Nc2nc(OCC3CCCCC3)c3nc[nH]c3n2)cc1 [NU6144, 4-(6-Cyclohexylmethoxy-9H-purin-2-ylamino)-N-(2-hydroxyethyl)benzenesulfonamide] | – | – | 0.008 ± 0.0002 µM | 0.004 ± 0.0015 µM
O=C(O)c1ccc(Nc2nc(OCC3CCCCC3)c3nc[nH]c3n2)cc1 [NU6147, 4-(6-Cyclohexylmethoxypurin-2-ylamino)benzoic acid] | 0.24 µM | – | – | –
OCc1cccc(Nc2nc(OCC3CCCCC3)c3nc[nH]c3n2)c1 [NU6151, [3-(6-Cyclohexylmethoxy-9H-purin-2-ylamino)phenyl]methanol] | 0.3 ± 0.01 µM | – | – | –
COc1cc(Nc2nc(OCC3CCCCC3)c3nc[nH]c3n2)ccc1S(N)(=O)=O [NU6161, 4-[6-Cyclohexylmethoxy-9H-purin-2-ylamino]-benzene(3′-methoxy)sulfonamide] | – | – | 0.103 ± 0.004 µM | –
